Test results taken from ChEMBL document CHEMBL1201862, “PubChem BioAssay data set” (2004).
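48-hour exposure; five concentrations; linearly interpolated endpoints. GI50 = concentration required for 50% inhibition of growth.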 Activity calls are given as the source filed them. Cut-off read from the data, not from the text of the source: active = GI50 up to about 1.1 µM and inactive = higher.

Columns and labels:
Test in all cases: DTP human tumour cell line panel, 48 h
HOP-92 = tested on: HOP-92
NCI-H522 = tested on: NCI-H522
RXF 393 = tested on: RXF 393
MDA-MB-435 = tested on: MDA-MB-435
ACHN = tested on: ACHN
OVCAR-8 = tested on: OVCAR-8
U-251 = tested on: U-251
SK-MEL-28 = tested on: SK-MEL-28
T47D = tested on: T47D
TK-10 = tested on: TK-10
OVCAR-3 = tested on: OVCAR-3
NCI-H460 = tested on: NCI-H460
SK-OV-3 = tested on: SK-OV-3
SF-295 = tested on: SF-295
A498 = tested on: A498
DU-145 = tested on: DU-145
SF-268 = tested on: SF-268
BT-549 = tested on: BT-549

Compound | GI50 (HOP-92) | GI50 (NCI-H522) | GI50 (RXF 393) | GI50 (MDA-MB-435) | GI50 (ACHN) | GI50 (OVCAR-8) | GI50 (U-251) | GI50 (SK-MEL-28) | GI50 (T47D) | GI50 (TK-10) | GI50 (OVCAR-3) | GI50 (NCI-H460) | GI50 (SK-OV-3) | GI50 (SF-295) | GI50 (A498) | GI50 (DU-145) | GI50 (SF-268) | GI50 (BT-549)
O=C1NC2c3c(I)sc(I)c3C(=O)C2O1 (stereo not given) | 3.38 µM (inactive) | 1.56 µM (inactive) | 5.56 µM (inactive) | 4.45 µM (inactive) | 3.05 µM (inactive) | 2.84 µM (inactive) | 6.78 µM (inactive) | 7.41 µM (inactive) | 15.9 µM (inactive) | 10.9 µM (inactive) | 3.31 µM (inactive) | 13.9 µM (inactive) | 17.3 µM (inactive) | 15.8 µM (inactive) | 14.3 µM (inactive) | 14 µM (inactive) | 6.76 µM (inactive) | 5.53 µM (inactive)
Cc1ccc(S(=O)(=O)N2CCSCCSCCSCCSCC2)cc1 | 12.3 µM (inactive) | 33.6 µM (inactive) | > 27.9 µM (inactive) | 73.8 µM (inactive) | > 58.3 µM (inactive) | 24.3 µM (inactive) | 18.4 µM (inactive) | > 88.5 µM (inactive) | 36.3 µM (inactive) | 44.6 µM (inactive) | 35.5 µM (inactive) | 56.4 µM (inactive) | 19.1 µM (inactive) | 22.6 µM (inactive) | > 44.2 µM (inactive) | > 100 µM (inactive) | 34.5 µM (inactive) | 25.4 µM (inactive)
Cc1ccc2c(c1)S(=O)(=O)c1ccc3ccccc3c1N2 | > 100 µM (inactive) | > 100 µM (inactive) | > 100 µM (inactive) | > 100 µM (inactive) | > 100 µM (inactive) | > 100 µM (inactive) | > 100 µM (inactive) | > 100 µM (inactive) | > 100 µM (inactive) | > 100 µM (inactive) | > 100 µM (inactive) | > 100 µM (inactive) | > 100 µM (inactive) | > 100 µM (inactive) | > 100 µM (inactive) | > 100 µM (inactive) | > 100 µM (inactive) | > 100 µM (inactive)
COC1/C=C/C(C)C(OC)CC(O)/C=C/C(C)C(C(C)C(OC)C(C)CCC(=O)C(C)C(C/C=C/N(C)C=O)OC)OC(=O)/C=C/C=C(\C)CC(OC)CC2=CC(=O)O[C@@H](C(C)C(OC)C1)[C@H]2O (stereo not given in full) | 0.0634 µM (active) | 0.146 µM (active) | 0.0735 µM (active) | 0.182 µM (active) | 0.091 µM (active) | 0.16 µM (active) | 0.0706 µM (active) | 0.0767 µM (active) | 0.912 µM (active) | 0.29 µM (active) | 0.049 µM (active) | 0.0395 µM (active) | 0.151 µM (active) | 0.11 µM (active) | 0.056 µM (active) | 0.544 µM (active) | 0.153 µM (active) | 0.142 µM (active)
O=C(O)C1C(C(=O)O)C23CC2(C(=O)O)C2(C(=O)O)CCC3=C3CCCC312 (stereo not given) | 8.3 µM (inactive) | 3.73 µM (inactive) | 6.84 µM (inactive) | 7.73 µM (inactive) | 9.51 µM (inactive) | 10.7 µM (inactive) | 5.97 µM (inactive) | 5.97 µM (inactive) | 11.8 µM (inactive) | 11.1 µM (inactive) | 2.5 µM (inactive) | 4.99 µM (inactive) | 3.89 µM (inactive) | 4.13 µM (inactive) | 18.3 µM (inactive) | 11.7 µM (inactive) | 4.51 µM (inactive) | 17.2 µM (inactive)
COC(=O)c1c(O)ccc2c1c1c(n2CCc2ccc(OC)c(OC)c2)C(=O)c2ccccc2C1=O | 14.6 µM (inactive) | 2.69 µM (inactive) | 16.8 µM (inactive) | 14 µM (inactive) | 18.2 µM (inactive) | 10.5 µM (inactive) | 18.4 µM (inactive) | 11.6 µM (inactive) | 12 µM (inactive) | 21.6 µM (inactive) | 16.3 µM (inactive) | 5.01 µM (inactive) | 19.4 µM (inactive) | 19.6 µM (inactive) | 15.9 µM (inactive) | 15.6 µM (inactive) | 17.5 µM (inactive) | 10.9 µM (inactive)
CCOc1ccccc1/N=N/C1C(=O)N(C(=O)CC(=O)Nc2ccccc2OC)N=C1C (stereo not given) | 20.3 µM (inactive) | 42.9 µM (inactive) | 24.2 µM (inactive) | > 100 µM (inactive) | > 100 µM (inactive) | 37.5 µM (inactive) | 27.3 µM (inactive) | > 100 µM (inactive) | 37 µM (inactive) | > 100 µM (inactive) | > 100 µM (inactive) | 42.4 µM (inactive) | 27.5 µM (inactive) | 20.9 µM (inactive) | 63.4 µM (inactive) | 71.3 µM (inactive) | 22.4 µM (inactive) | > 100 µM (inactive)
COc1cc(C)c(/C=C2/N=C(c3ccccc3)OC2=O)c([N+](=O)[O-])c1OC | 37.4 µM (inactive) | > 100 µM (inactive) | > 100 µM (inactive) | > 100 µM (inactive) | > 100 µM (inactive) | > 100 µM (inactive) | > 100 µM (inactive) | > 100 µM (inactive) | > 100 µM (inactive) | > 100 µM (inactive) | > 100 µM (inactive) | > 100 µM (inactive) | > 100 µM (inactive) | > 100 µM (inactive) | > 100 µM (inactive) | > 100 µM (inactive) | > 100 µM (inactive) | > 100 µM (inactive)
CS(=O)(=O)Nc1ccc(NCc2c[nH]c3ccc4ncccc4c23)cc1 | 52.6 µM (inactive) | 18.5 µM (inactive) | 23.9 µM (inactive) | 16.9 µM (inactive) | 20.6 µM (inactive) | 34 µM (inactive) | 23.6 µM (inactive) | 26.1 µM (inactive) | 20.6 µM (inactive) | 25.6 µM (inactive) | 31.1 µM (inactive) | 30 µM (inactive) | 50.8 µM (inactive) | 24.2 µM (inactive) | 20.3 µM (inactive) | 26.1 µM (inactive) | 23.7 µM (inactive) | 30.3 µM (inactive)
CC1(C)CO[P@@](=S)(c2ccccn2)O[C@@H]1c1ccccc1 | > 100 µM (inactive) | 70.8 µM (inactive) | > 100 µM (inactive) | > 100 µM (inactive) | > 100 µM (inactive) | > 100 µM (inactive) | > 100 µM (inactive) | > 100 µM (inactive) | > 100 µM (inactive) | > 100 µM (inactive) | 18.7 µM (inactive) | > 100 µM (inactive) | > 100 µM (inactive) | > 100 µM (inactive) | > 100 µM (inactive) | > 100 µM (inactive) | > 100 µM (inactive) | > 100 µM (inactive)
O=C(CC(=O)N(C(=O)c1ccccc1)c1ccc(Cl)cc1)N/N=C\c1ccccc1O | 24.6 µM (inactive) | > 100 µM (inactive) | 36.8 µM (inactive) | > 100 µM (inactive) | 77.3 µM (inactive) | 35.2 µM (inactive) | 48.2 µM (inactive) | > 100 µM (inactive) | 49.7 µM (inactive) | 32.3 µM (inactive) | > 100 µM (inactive) | 96.2 µM (inactive) | 17.2 µM (inactive) | 25.9 µM (inactive) | 65 µM (inactive) | > 100 µM (inactive) | 24.8 µM (inactive) | 21.1 µM (inactive)
C/C(N)=C/C(=O)c1[nH]c(C(=O)O)cc1C1CCN(Cc2ccccc2)C1=O (stereo not given) | 17 µM (inactive) | 20.6 µM (inactive) | 18.5 µM (inactive) | 40.6 µM (inactive) | 30 µM (inactive) | 21.8 µM (inactive) | 39.6 µM (inactive) | 24.3 µM (inactive) | 22.8 µM (inactive) | 38.5 µM (inactive) | 20.6 µM (inactive) | 29.4 µM (inactive) | 28.6 µM (inactive) | 21.3 µM (inactive) | 65.3 µM (inactive) | 22.1 µM (inactive) | 22.3 µM (inactive) | 31.8 µM (inactive)
CC1OC(OC2C(O[C@H]3CC[C@@H]4C(=CC[C@@H]5[C@@]4(C)C(=O)C[C@]4(C)[C@@H]([C@H](C)CC[C@@H](O)C(C)(C)O)CC[C@@]54C)C3(C)C)OC(CO)C(O)C2O)C(O)C(O)C1O (stereo not given in full) | > 100 µM (inactive) | > 100 µM (inactive) | > 100 µM (inactive) | > 100 µM (inactive) | > 100 µM (inactive) | > 100 µM (inactive) | > 100 µM (inactive) | > 100 µM (inactive) | > 100 µM (inactive) | > 100 µM (inactive) | > 100 µM (inactive) | > 100 µM (inactive) | > 100 µM (inactive) | > 100 µM (inactive) | > 100 µM (inactive) | > 100 µM (inactive) | > 100 µM (inactive) | > 100 µM (inactive)
COc1cccc(C2c3cc4c(cc3OC(N3CCCCC3)C2C)OCO4)c1OC (stereo not given) | 5.4 µM (inactive) | 5.21 µM (inactive) | 4.08 µM (inactive) | 11.3 µM (inactive) | 3.19 µM (inactive) | > 100 µM (inactive) | 4.58 µM (inactive) | 16.3 µM (inactive) | 4.1 µM (inactive) | 16.5 µM (inactive) | 4.15 µM (inactive) | 4.46 µM (inactive) | 12.4 µM (inactive) | 4.27 µM (inactive) | 9.42 µM (inactive) | 3.64 µM (inactive) | 8.2 µM (inactive) | 9.06 µM (inactive)
COc1cc2c(cc1OC)C(CCN)=NCC2 | 6.82 µM (inactive) | 3.82 µM (inactive) | 15.7 µM (inactive) | 16.5 µM (inactive) | 16.6 µM (inactive) | 18.2 µM (inactive) | 16.4 µM (inactive) | 18.4 µM (inactive) | 8.32 µM (inactive) | 10.2 µM (inactive) | 18 µM (inactive) | > 59.2 µM (inactive) | > 76.7 µM (inactive) | > 100 µM (inactive) | 26.9 µM (inactive) | 17.9 µM (inactive) | 19.5 µM (inactive) | 19.1 µM (inactive)
